Measured values as given in PubChem BioAssay (NCI).
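In this assay, cells in 96-well plates receive the compound at five concentrations for 48 hours. Endpoints are linearly interpolated between the surrounding concentrations. GI50 = concentration required for 50% inhibition of growth. TGI: concentration producing complete growth inhibition.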

Columns and labels:
Assay in all cases: growth of human tumour cells (NCI), 48 h
[1] = test system: SR leukemia
[2] = test system: A498 renal
[3] = test system: HOP-92 NSCLC
[4] = test system: RXF 393 renal
[5] = test system: HOP-62 NSCLC
[6] = test system: HCC-2998 colon
[7] = test system: U251 CNS
[8] = test system: KM12 colon
[9] = test system: EKVX NSCLC
[10] = test system: M14 melanoma
[11] = test system: SF-539 CNS
[12] = test system: SK-MEL-2 melanoma
[13] = test system: UACC-62 melanoma
[14] = test system: SK-MEL-28 melanoma
[15] = test system: MDA-MB-435
[16] = test system: MDA-MB-231 breast
[17] = test system: CAKI-1 renal
[18] = test system: HL-60(TB) leukemia
[19] = test system: COLO 205 colon
[20] = test system: MCF7 breast
[21] = test system: HCT-116 colon
[22] = test system: K-562 leukemia
[23] = test system: 786-0 renal
[24] = test system: SNB-75 CNS
[25] = test system: OVCAR-4 ovarian
[26] = test system: SF-295 CNS
[27] = test system: SW-620 colon
[28] = test system: LOX IMVI melanoma
[29] = test system: MOLT-4 leukemia
[30] = test system: UO-31 renal
[31] = test system: ACHN renal
[32] = test system: OVCAR-5 ovarian
[33] = test system: PC-3 prostate
[34] = test system: IGROV1 ovarian
[35] = test system: NCI-H23 lung
[36] = test system: MALME-3M melanoma
[37] = test system: SF-268 CNS
[38] = test system: BT-549 breast
[39] = test system: TK-10 renal
[40] = test system: OVCAR-8 ovarian
[41] = test system: HT29 colon
[42] = test system: T-47D breast
[43] = test system: NCI-H460 lung
[44] = test system: CCRF-CEM leukemia
[45] = test system: HS 578T breast
[46] = test system: NCI-H226 lung
[47] = test system: SK-OV-3 ovarian
[48] = test system: NCI-H522 lung
[49] = test system: HCT-15 colon
[50] = test system: OVCAR-3 ovarian
[51] = test system: SN12C renal
[52] = test system: NCI/ADR-RES ovarian
[53] = test system: SK-MEL-5 melanoma
[54] = test system: UACC-257 melanoma
[55] = test system: SNB-19 CNS
[56] = test system: DU-145 prostate
[57] = test system: RPMI-8226 leukemia
[58] = test system: A549 NSCLC

CS(=O)(=O)Nc1cc(-c2ccc3ncnc(Nc4ccc5c(cnn5Cc5cccc(F)c5)c4)c3c2)cnc1Cl
GI50 [1]: 0.507 µM
TGI [1]: > 100 µM
GI50 [2]: 0.0717 µM
TGI [2]: 0.535 µM
GI50 [3]: 0.0562 µM
TGI [3]: 0.46 µM
GI50 [4]: 0.294 µM
TGI [4]: 1.45 µM
GI50 [5]: 0.452 µM
TGI [5]: 7.95 µM
GI50 [6]: 0.829 µM
TGI [6]: 2.55 µM
GI50 [7]: 0.419 µM
TGI [7]: 3.17 µM
GI50 [8]: 1.14 µM
TGI [8]: 4.25 µM
GI50 [9]: 0.479 µM
TGI [9]: 4.7 µM
GI50 [10]: 0.745 µM
TGI [10]: 2.5 µM
GI50 [11]: 0.361 µM
TGI [11]: 1.75 µM
GI50 [12]: 0.275 µM
TGI [12]: 1.21 µM
GI50 [13]: 0.324 µM
TGI [13]: 1.69 µM
GI50 [14]: 0.316 µM
TGI [14]: 1.86 µM
GI50 [15]: 0.628 µM
TGI [15]: 2.3 µM
GI50 [16]: 0.586 µM
TGI [16]: 13.2 µM
GI50 [17]: 0.359 µM
TGI [17]: 2.48 µM
GI50 [18]: 0.283 µM
TGI [18]: 1.98 µM
GI50 [19]: 0.759 µM
TGI [19]: 2.96 µM
GI50 [20]: 0.201 µM
TGI [20]: 1.65 µM
GI50 [21]: 0.48 µM
TGI [21]: 1.84 µM
GI50 [22]: 0.913 µM
TGI [22]: > 100 µM
GI50 [23]: 0.456 µM
TGI [23]: 5.41 µM
GI50 [24]: 0.0321 µM
TGI [24]: 0.457 µM
GI50 [25]: 1.38 µM
TGI [25]: 6.51 µM
GI50 [26]: 0.811 µM
TGI [26]: 3 µM
GI50 [27]: 0.676 µM
TGI [27]: 6.61 µM
GI50 [28]: 0.4 µM
TGI [28]: 1.9 µM
GI50 [29]: 0.318 µM
TGI [29]: 3.38 µM
GI50 [30]: 1.04 µM
TGI [30]: 3.96 µM
GI50 [31]: 1.63 µM
TGI [31]: 15.4 µM
GI50 [32]: 0.608 µM
TGI [32]: 7.3 µM
GI50 [33]: 0.411 µM
TGI [33]: 2.6 µM
GI50 [34]: 0.17 µM
TGI [34]: 0.733 µM
GI50 [35]: 0.648 µM
TGI [35]: 6.28 µM
GI50 [36]: 0.201 µM
TGI [36]: 1.3 µM
GI50 [37]: 0.256 µM
TGI [37]: 2.07 µM
GI50 [38]: 0.227 µM
TGI [38]: 1.05 µM
GI50 [39]: 0.277 µM
TGI [39]: 2.19 µM
GI50 [40]: 1.57 µM
TGI [40]: > 100 µM
GI50 [41]: 0.597 µM
TGI [41]: 5.42 µM
GI50 [42]: 0.101 µM
TGI [42]: 0.922 µM
GI50 [43]: 0.929 µM
TGI [43]: 9.45 µM
GI50 [44]: 0.301 µM
TGI [44]: > 100 µM
GI50 [45]: 0.111 µM
TGI [45]: 0.878 µM
GI50 [46]: 1.11 µM
TGI [46]: 4.84 µM
GI50 [47]: 0.376 µM
TGI [47]: 2.27 µM
GI50 [48]: 0.381 µM
TGI [48]: 2.74 µM
GI50 [49]: 1.11 µM
TGI [49]: 8.01 µM
GI50 [50]: 0.293 µM
TGI [50]: 1.89 µM
GI50 [51]: 0.421 µM
TGI [51]: 18.9 µM
GI50 [52]: 5.8 µM
TGI [52]: > 78.4 µM
GI50 [53]: 0.397 µM
TGI [53]: 1.44 µM
GI50 [54]: 0.812 µM
TGI [54]: 4.47 µM
GI50 [55]: 0.575 µM
TGI [55]: 3.65 µM
GI50 [56]: 0.756 µM
TGI [56]: 11.2 µM
GI50 [57]: 0.396 µM
TGI [57]: 2.05 µM
GI50 [58]: 1.56 µM
TGI [58]: 5.79 µM

CCCCCCCCc1ccc(OCCOCC[N+](C)(C)CC)cc1 (tested in a mixture with another compound)
GI50 [1]: 3 µM
TGI [1]: 14.3 µM
GI50 [2]: 9.16 µM
TGI [2]: 22 µM
GI50 [3]: 1.17 µM
TGI [3]: 4.51 µM
GI50 [4]: 10.5 µM
TGI [4]: 23.4 µM
GI50 [5]: 5 µM
TGI [5]: 17.2 µM
GI50 [6]: 3.74 µM
TGI [6]: 13.6 µM
GI50 [7]: 1.8 µM
TGI [7]: 12.3 µM
GI50 [8]: 3.72 µM
TGI [8]: 13.8 µM
GI50 [9]: 4.6 µM
TGI [9]: 18.7 µM
GI50 [10]: 4.07 µM
TGI [10]: 17.2 µM
GI50 [11]: 3.97 µM
TGI [11]: 15 µM
GI50 [12]: 2.56 µM
TGI [12]: 8.53 µM
GI50 [13]: 1.88 µM
TGI [13]: 5.48 µM
GI50 [14]: 3.25 µM
TGI [14]: 15.4 µM
GI50 [15]: 2.91 µM
TGI [15]: 11.2 µM
GI50 [16]: 2.75 µM
TGI [16]: 11.3 µM
GI50 [17]: 54.8 µM
TGI [17]: > 100 µM
GI50 [18]: 1.47 µM
TGI [18]: 4.85 µM
GI50 [19]: 1.59 µM
TGI [19]: 3.21 µM
GI50 [20]: 3.05 µM
TGI [20]: 12.6 µM
GI50 [21]: 3.84 µM
TGI [21]: 14.8 µM
GI50 [22]: 3.06 µM
TGI [22]: 15.4 µM
GI50 [23]: 14.2 µM
TGI [23]: 28.8 µM
GI50 [24]: 2.12 µM
TGI [24]: 9 µM
GI50 [25]: 1.66 µM
TGI [25]: 10.8 µM
GI50 [26]: 13 µM
TGI [26]: 27 µM
GI50 [27]: 3.97 µM
TGI [27]: 16.1 µM
GI50 [28]: 2.7 µM
TGI [28]: 13.7 µM
GI50 [29]: 4.39 µM
TGI [29]: 18.2 µM
GI50 [30]: 17.5 µM
TGI [30]: 45.4 µM
GI50 [31]: 15.6 µM
TGI [31]: 30.4 µM
GI50 [32]: 7.5 µM
TGI [32]: 20.9 µM
GI50 [33]: 3.12 µM
TGI [33]: 12.6 µM
GI50 [34]: 3.74 µM
TGI [34]: 14.7 µM
GI50 [35]: 3.42 µM
TGI [35]: 15.8 µM
GI50 [36]: 1.93 µM
TGI [36]: 6.44 µM
GI50 [37]: 4.22 µM
TGI [37]: 16.9 µM
GI50 [38]: 3.03 µM
TGI [38]: 9.8 µM
GI50 [39]: 14.8 µM
TGI [39]: 29.1 µM
GI50 [40]: 3.81 µM
TGI [40]: 15.4 µM
GI50 [41]: 3.1 µM
TGI [41]: 13.5 µM
GI50 [42]: 3.14 µM
TGI [42]: 13.7 µM
GI50 [43]: 3.94 µM
TGI [43]: 14.5 µM
GI50 [44]: 3.2 µM
TGI [44]: 15.9 µM
GI50 [45]: 3.2 µM
TGI [45]: 16.6 µM
GI50 [46]: 4.31 µM
TGI [46]: 19.2 µM
GI50 [47]: 7.74 µM
TGI [47]: 20.2 µM
GI50 [48]: 2.18 µM
TGI [48]: 9.84 µM
GI50 [49]: 24.8 µM
TGI [49]: > 100 µM
GI50 [50]: 2.79 µM
TGI [50]: 12.5 µM
GI50 [51]: 3.07 µM
TGI [51]: 11.9 µM
GI50 [52]: > 100 µM
TGI [52]: > 100 µM
GI50 [53]: 1.45 µM
TGI [53]: 3.06 µM
GI50 [54]: 2.34 µM
TGI [54]: 6.8 µM
GI50 [56]: 8.09 µM
TGI [56]: 22.8 µM
GI50 [57]: 2.03 µM
TGI [57]: 6.82 µM
GI50 [58]: 9.99 µM
TGI [58]: 23.1 µM
